{"source": "patent US20070225355A1", "about": "“Dietary Compositions for Enhancing Metabolism and Reducing Reactive Oxygen Species” (Elixirin Corporation, priority 2004, published 2007)", "key": {"oxidation level of DNA": {"tested_on": "oxidation level of DNA", "assay": "Oxidation level of DNA in hippocampus sections (anti-8-hydroxy-2'-deoxyguanosine/8-hydroxyguanosine immunocytochemistry)", "type": "in vivo", "conditions": "rat brain hippocampus sections, fed 7 weeks; mean of 5 animals; standard deviation about 15%", "from_the_text": "The rats in the experimental group (5 each) were fed either 0.5% (wt/vol) acetyl-L-camitine in water, 1.0% (wt/vol) polyphenol in water; 0.2% (wt/wt) lipoic acid in AIN93M diet, or a combination of the above. Rats were acclimated for one week before experiments. Rats were fed for the above treatment for 7 weeks before tests. Control rats were fed with water and AIN93M diet only. For assaying DNA oxidation, rats from each treatment group (5 animals per group) was anesthetized with ether and perfused with paraformaldehyde. The brain was removed and postfixed for paraffin sections. Sections of hippocampus were incubated with anti-8-hydroxy-2′-deoxyguanosine/8-hydroxyguanosine and visualized by using standard immunocytochemical methods. Quantification of oxidation was done as described in Liu, J K, et al., (Proc. Natl. Acad. Sci USA, 99:1356-2361, 2002). Values are a mean of 5 animals. The standard deviation is about 15%."}, "Fischer 344 male rats": {"tested_on": "Fischer 344 male rats", "assay": "Morris water maze spatial memory test in rats", "type": "in vivo, rat", "conditions": "fed 7 weeks, 4 consecutive days, 4 trials per day, averaged, standard deviation around 20%", "from_the_text": "FIG. 1 of 2 depicts measurements of spatial memory in (Fischer 344 male rats) subjected to a water maze test, after treatment with carnitine, lipoic acid, and/or polyphenol. […] The Morris maze task tests spatial memory by requiring rats to fmd a submerged platform in a pool of water using external visual cues (Morris, R. 1984; J. Neurosci. Methods, 11:47-60; Schenk, F. and Morris, R, Exp. Brain Res. 58:11-28, 1985). The rats in the experimental group (5 each) were fed either 0.5% (wt/vol) acetyl-L-carnitine in water, 1.0% (wt/vol) polyphenol in water; 0.2% (wt/wt) lipoic acid in AIN93M diet, or a combination of the above. Rats were acclimated for one week before experiments. Rats were fed for the above treatment for 7 weeks before tests. Trials (4 consecutive days, 4 trials per day) were conducted and the results averaged. The standard deviation is around 20%. Control rats were fed with water and AIN93M diet only."}}}
{"compound": "O=C(O)CCCC[C@@H]1CCSS1", "note": "(racemic) [lipoic acid]", "values": [{"measurement": "DNA oxidation level compared with rats having no treatment", "setting": "oxidation level of DNA", "result": "~82", "unit": "%"}, {"measurement": "mastery of the water maze, faster over no treatment", "setting": "Fischer 344 male rats", "result": "~79", "unit": "%"}]}
